Patent US8278072B1, “Method for synthesis of sialylated products using reversible sialylation” (Health Research, Inc., priority 2007, dated 2012)
Marks after values point to notes of the source that are not given here.

Key:
[1] = molecular target: T1, ST3Gal-II (Rattus norvegicus, UniProt Q11205); assay: Serial transfer of sialic acid from donor via 5′-CMP to acceptors (scheme-II); assay type: biochemical; conditions: for Incorporation of [9-3H]NeuAc from donor [3], percent of the CPM incorporated into [5]: 150 μM donor [3]
T1 construct: purchased Calbiochem
T1 sequence (Q11205 1-350): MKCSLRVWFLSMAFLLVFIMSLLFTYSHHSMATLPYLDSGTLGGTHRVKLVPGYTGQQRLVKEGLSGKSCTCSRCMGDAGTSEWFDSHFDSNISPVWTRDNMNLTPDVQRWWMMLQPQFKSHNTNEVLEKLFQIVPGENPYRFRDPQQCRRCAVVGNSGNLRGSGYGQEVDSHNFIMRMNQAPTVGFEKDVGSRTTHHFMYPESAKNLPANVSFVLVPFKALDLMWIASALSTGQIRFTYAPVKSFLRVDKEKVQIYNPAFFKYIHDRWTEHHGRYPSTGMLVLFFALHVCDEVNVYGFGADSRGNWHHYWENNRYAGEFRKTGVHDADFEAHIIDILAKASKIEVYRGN
Protocol: FIG. 3. Serial transfer of sialic acid using scheme-II was followed at increasing concentrations of acceptor D-Fucβ1,3GalNAcα-O-Bn. The donor used was either: i) 0.15 mM [9-^3H]CMP-NeuAc; or, ii) 0.15 mM [9-^3H]NeuAcα2,3Galβ1,3(4-FGlcNAcβ1,6)GalNAcα-O-Bn [9-^3H [2]] in the presence of 2.0 mM 5′-CMP, or iii) [9-^3H]NeuAcα2,3Galβ1,3(6-O-SulfoGlcNAcβ1,6)GalNAcα-O—Al [[9-^3H] [4]] in the presence of 2.0 mM 5′-CMP. In runs where [9-^3H [2]] was donor since both and [2] bind C18 cartridges, control runs were performed in the absence of D-Fucβ1,3GalNAcα-O-Bn to estimate the amount of [9-^3H]CMP-NeuAc formed under the experimental conditions. 80-85% of the radioactivity was transferred to CMP-NeuAc in these runs. The amount of CMP-NeuAc remaining in runs with was then subtracted from CMP-NeuAc radioactivity in the control run to determine the amount of sialylated. To complement this run, studies were also performed with [[9-^3H] […] In these runs, the amount of sialylated was determined by measuring radioactivity retained in the C18-cartridge. a. Equilibrium constant was 5.55 when CMP-[9-^3H]NeuAc was donor. b. ˜10-fold lower acceptor concentration was required for similar extents of reaction when CMP-[9-^3H]NeuAc was donor, compared to core-2 based donors and [4].
We tested the possibility that CMP-NeuAc formed above may be available for transfer to other acceptors using ST3Gal-II (scheme-II, FIG. 3). For this, three radiolabeled donors were prepared using methods described above: two were based on the mucin Core-2 structure ([[9-^3H] [1]] and [9-^3H]NeuAcα2,3Galβ1,3(6-O-SulfoGlcNAcβ1,6)GalNAcα-O—Al [[9-^3H] [4]]) while the third was based on the Globo glycolipid ([9-^3H] [3]). The transfer of [9-^3H]NeuAc from these sialylated donors to various T-hapten (Galβ1,3GalNAcα) and mucin core2-based glycoside acceptors in the presence of 5′-CMP and ST3Gal-II was assessed (Table III). All three […] of ST3Gal-II ([1], [3] and [4]) allowed formation of CMP-[9-^3H]NeuAc, and a diverse array of products.
The transfer of [9-^3H]NeuAc from [[9-^3H][1]] to D-Fucβ1,3GalNAcα-O-Bn in the presence of 5′-CMP and ST3Gal-II increased linearly in the first two hours and it reached saturation at 4 hours (FIG. 12), and thus the data in Table III (4 hours time point) represent equilibrium conditions. […] Further, diverse sialylated products can be formed using the same synthetic sialylated donor.
In order to compare the efficiency of individual reactions of scheme II, independent runs were performed where either 0.15 mM [9-^3H]CMP-NeuAc, 0.15 mM [9-^3H] [2] or 0.15 mM [9-^3H] [4] was the donor, and [5] was the acceptor (FIG. 3). 2 mM 5′-CMP was added in runs with core-2 donors and [4], and thus reverse sialylation of these molecules was feasible. Keq for transfer of sialic acid from CMP-NeuAc to [5] was 5.55 (FIG. 3a). […] (˜6 mM) or [9-^3H[4]] (˜6 mM). Thus, while the two-step mechanism results in lower conversion than CMP-NeuAc alone, the transfer of NeuAc still takes place at an appreciable rate.

[2] = molecular target: T1, ST3Gal-II; assay: Reverse sialylation: transfer of [9-3H]NeuAc from sialylated donor to nucleotide phosphates (WGA-agarose); assay type: biochemical; conditions: for Incorporation of [9-3H]NeuAc expressed as percent of the CPM incorporated into 5′-CMP: nucleotide phosphate 1 mM as acceptor, donor [1]
Protocol: FIG. 1. Nucleotide phosphates as acceptors of radioactivity from [9-^3H]NeuAcα2,3Galβ,13 (GlcNAcβ1,6)GalNAcα-O—Al (Al=Allyl) [[9-^3H] [1]] in the presence of ST3Gal-II (scheme-I). Reaction mixtures (RM) with the following composition were incubated at 37° C. for 21 hours in 100 mM NaCa Codylate buffer, pH6.0: i) RM containing 150 μM (0.4 μCi) [[9-^3H] [1]] (donor) along with 0.8 mU ST3Gal-II but no 5″-CMP; and, ii) RM containing [[9-^3H] [1]] and 1.0 mM 5′-CMP, along with ST3Gal-II. Products formed were fractionated on a WGA-agarose column. […] The feasibility of the reverse reaction is well established in literature. Schematic symbols: ♦:sialic acid, ●:Gal, □:GalNAc, ▪:GlcNAc.
All enzymatic sialylation reactions were typically carried out in 100 mM NaCa Codylate buffer pH6.0 in the presence of enzyme, synthetic acceptor (at 7.5 mM or as indicated in each experiment) and 0.2 μCi CMP-[9-^3H]NeuAc (NEN-Dupont, 29 mCi/μmol). The concentration of total CMP-NeuAc was adjusted in individual reactions by supplementing with additional cold CMP-NeuAc. Reaction volume was 20 μl. Products formed were separated using four different chromatography procedures (below). In all cases, the radioactive content of isolated products was determined by using 3a70 scintillation cocktail (Research Products International, Mount Prospect, Ill.), and a Beckman LS6500 scintillation counter.
a) Biogel P2 chromatography: A Biogel P2 column (Fine Mesh; 1.0×116.0 cm) was used with 0.1 M pyridine acetate (pH5.4) as the eluent at room temperature. […] Fractions of 1.0 ml were collected. The bound material was then eluted with 0.5M GlcNAc or 0.2M Gal in the same buffer. […] Calculation of equilibrium constant, Keq: Equilibrium constant was calculated for selected reversible bimolecular reactions that are denoted by:
Cloned and purified rat sialyltransferase α2,3(O)ST (ST3Gal-II) is used in many experiments presented in this manuscript. […] In order to determine if the sialylation reaction is reversible (FIG. 1), [9-^3H]NeuAcα2,3Galβ,13(GlcNAcβ1,6)GalNAcα-O—Al (Al=Allyl) [9-^3H[1]] was prepared using ST3Gal-II in the presence of CMP-[9-^3H]NeuAc and the trisaccharide acceptor Galβ1,3(GlcNAcβ1,6)GalNAcα-O—Al, and the radiolabeled product was isolated using Biogel P2 chromatography. […] Two different reaction mixtures were then prepared with: i) [9-^3H[1]] and ST3Gal-II but without 5″-CMP; and ii) [9-^3H[1]] and 5″-CMP along with ST3Gal-II.

[3] = acceptor 2.5 mM, 150 μM donor [1], 1 mM 5′-CMP, 4 hours
[4] = acceptor 2.5 mM, 1 mM 5′-CMP, 4 hours
[5] = acceptor 2.5 mM, 150 μM donor [4], 1 mM 5′-CMP, 4 hours

Molecule	Incorporation of [9-3H]NeuAc from donor [1], percent of the CPM incorporated into [5] [1, 3] [%]	Incorporation of [9-3H]NeuAc from donor [3], percent of the CPM incorporated into [5] [1, 4] [%]	Incorporation of [9-3H]NeuAc from donor [4], percent of the CPM incorporated into [5] [1, 5] [%]	Incorporation of [9-3H]NeuAc expressed as percent of the CPM incorporated into 5′-CMP [2] [%]	further results
D-Fucβ1,3GalNAcα-O-Bn [[5]]	100.0	100.0	100.0	–	Incorporation of [9-3H]NeuAc from donor [1] [1, 3]: (34569 CPM); Incorporation of [9-3H]NeuAc from donor [3] ([1]; acceptor 2.5 mM, 150 μM donor [3] of lower specific radioactivity, 1 mM 5′-CMP, 4 hours): (6224 CPM)***; Incorporation of [9-3H]NeuAc from donor [4] [1, 5]: (97675 CPM); Keq for transfer of sialic acid from CMP-NeuAc to [5] ([1]; donor 0.15 mM CMP-[9-3H]NeuAc): 5.55
CO[C@H]1[C@@H](O)[C@@H](CO)O[C@@H](O[C@H]2[C@H](O)[C@@H](NC(C)=O)[C@H](OC[C@H]3O[C@H](OCc4ccccc4)[C@H](NC(C)=O)[C@@H](O[C@@H]4O[C@H](CO)[C@H](O)[C@H](O)[C@H]4O)[C@H]3O)O[C@@H]2CO)[C@@H]1O [[9], 3-O-MeGalβ1,4GlcNAcβ1,6(Galβ1,3)GalNAcα-O-Bn]	22.4	–	10.0	–	–
Nc1ccn([C@@H]2O[C@H](CO)[C@@H](OP(=O)(O)O)[C@H]2O)c(=O)n1 [3′-CMP]	–	–	–	2.4	–
Nc1nc2c(ncn2[C@@H]2O[C@H](COP(=O)(O)O)[C@@H](O)[C@H]2O)c(=O)[nH]1 [5′-GMP]	–	–	–	2.3	–
Nc1ncnc2c1ncn2[C@@H]1O[C@H](COP(=O)(O)O)[C@@H](O)[C@H]1O [5′-AMP]	–	–	–	3.0	–
[9-^3H]NeuAcα2,3Galβ,13 (GlcNAcβ1,6)GalNAcα-O—Al [[1]]	–	–	–	–	transfer of radioactive [9-3H]NeuAc from donor to 5′-CMP ([2]; 150 μM donor, 1.0 mM 5′-CMP): > 90%
COC[C@H]1O[C@H](OCc2ccccc2)[C@H](NC(C)=O)[C@@H](O[C@@H]2O[C@H](CO)[C@H](O)[C@H](O)[C@H]2O)[C@H]1O [[8], Galβ1,3(6-O-Me)GalNAcα-O-Bn]	43.0	3.3	21.5	–	–
CO[C@@H]1[C@H](O)[C@@H](O)[C@H](O[C@H]2[C@@H](O)[C@@H](CO[C@@H]3O[C@H](CO)[C@@H](O[C@@H]4O[C@H](CO)[C@H](O)[C@H](O)[C@H]4O)[C@H](O)[C@H]3NC(C)=O)O[C@H](OCc3ccccc3)[C@@H]2NC(C)=O)O[C@@H]1CO [[13], Galβ1,4GlcNAcβ1,6(4-O-MeGalβ1,3)GalNAcα-O-Bn]	1.3	–	0	–	–
Cc1cn([C@H]2C[C@H](O)[C@@H](COP(=O)(O)O)O2)c(=O)[nH]c1=O [5′-TMP]	–	–	–	1.1	–
CC(=O)N[C@H]1[C@H](OC[C@H]2O[C@H](OCc3ccccc3)[C@H](NC(C)=O)[C@@H](O[C@@H]3O[C@H](C)[C@H](O)[C@H](O)[C@H]3O)[C@H]2O)O[C@H](CO)[C@@H](O)[C@@H]1O [[6], D-Fucβ1,3(GlcNAcβ1,6)GalNAcα-O-Bn]	–	106.5	96.9	–	–
CC(=O)N[C@H]1[C@@H](OCc2ccccc2)O[C@H](CO)[C@H](O)[C@@H]1O[C@@H]1O[C@H](CO)[C@H](F)[C@H](O)[C@H]1O [[7], 4-FGalβ1,3GalNAcα-O-Bn]	60.8	4.1	33.3	–	–
Nc1ccn([C@@H]2O[C@H](COP(=O)(O)OP(=O)(O)OP(=O)(O)O)[C@@H](O)[C@H]2O)c(=O)n1 [5′-CTP, cytidine triphosphate]	–	–	–	1.6	–
CO[C@@H]1[C@H](O)[C@@H](O)[C@H](O[C@H]2[C@@H](O)[C@@H](CO)O[C@H](OCc3ccccc3)[C@@H]2NC(C)=O)O[C@@H]1CO [[11], 4-O-MeGalβ1,3GalNAcα-O-Bn]	8.9	0.2	2.7	–	–
CC(=O)N[C@H]1[C@H](OCc2ccccc2)O[C@H](CO)[C@@H](O[C@@H]2O[C@H](CO)[C@H](O)[C@H](O)[C@H]2O)[C@@H]1O [[12], Galβ1,4GlcNAcβ-O-Bn]	–	0.5	1.9	–	–
